Test results taken from ChEMBL document CHEMBL4382213, “Identification and characterization of agnuside, a natural proangiogenic small molecule” (Eur J Med Chem, 2018).
Converted amounts (≈) assume the structure as drawn. The source made the active and inactive calls. The rule behind the calls is not given here.

What was measured:
HUVEC [1] = experiment: Pro-angiogenic activity in HUVEC assessed as increase in tubular network formation at 0.1 ng/ml preincubated for 30 mins followed by ZM 323881 HCl addition and measured after 22 hrs by phase-contrast image analysis; format: functional, cell-based; details: Homo sapiens
HUVEC [2] = experiment: Effect on cell morphology in HUVEC at 1 to 2500 ng/ml after 24 to 96 hrs by DAPI staining-based spectrofluorometric analysis; format: functional; details: Homo sapiens
HUVEC [3] = experiment: Pro-angiogenic activity in HUVEC assessed as increase in cell proliferation at 2500 ng/ml after 24 to 72 hrs by DAPI staining-based spectrofluorometric analysis relative to control; format: functional, Homo sapiens
HUVEC [4] = experiment: […] activity in HUVEC assessed as wound closure at 100 ng/ml after 24 hrs by phase-contrast microscopic analysis; format: functional, cell-based; details: Homo sapiens
HUVEC [5] = experiment: Pro-angiogenic activity in HUVEC assessed as increase in meshes formation at 0.1 to 10 ng/ml after 22 hrs by phase-contrast image analysis; format: functional, cell-based; details: Homo sapiens
HUVEC [6] = experiment: Pro-angiogenic activity in HUVEC assessed as increase in cell proliferation at 2500 ng/ml after 96 hrs by DAPI staining-based spectrofluorometric analysis relative to control; format: functional, Homo sapiens
HUVEC [7] = experiment: Pro-angiogenic activity in HUVEC assessed as increase in meshes formation after 22 hrs by phase-contrast image analysis; format: functional, cell-based; details: Homo sapiens
HUVEC [8] = experiment: Pro-angiogenic activity in HUVEC assessed as increase in tubular network formation at 0.1 ng/ml after 22 hrs by phase-contrast image analysis; format: functional, cell-based; details: Homo sapiens
HUVEC [9] = experiment: Pro-angiogenic activity in HUVEC assessed as increase in cell proliferation after 96 hrs by DAPI staining-based spectrofluorometric analysis; format: functional; details: Homo sapiens

With `O=C(OCC1=C[C@@H](O)[C@@H]2C=CO[C@@H](O[C@@H]3O[C@H](CO)[C@@H](O)[C@H](O)[C@H]3O)[C@H]12)c1ccc(O)cc1` [AGNUSIDE] the Activity (HUVEC [1]) was “Active”, the Activity (HUVEC [2]) was “inactive” and the Activity (HUVEC [3]) was 20 - 30%. The Activity (HUVEC [4]) was “Active”, the Activity (HUVEC [5]) was “inactive” and the Activity (HUVEC [6]) was “<=56%”. The Activity (HUVEC [7]) was “Dose-dependent effect”, the Activity (HUVEC [8]) was “Active” and the EC50 (HUVEC [9]) was 1.38 µg/mL (≈ 2.95 µM).
